Laboratory results taken from patent US4016287A, “Dermatological compositions containing an acylamino-carboxylic acid or an alkyl ester thereof” (Boehringer Ingelheim GmbH, priority 1975, dated 1977).

Columns and labels:
[1] = tested on: sebaceous gland excretion; experiment: sebaceous gland excretion-inhibiting activity, glass block method (refatting of forehead skin); format: in vivo, human; conditions: ethanolic 5% solution, 0.25 ml on half of forehead; for Average extinction values, Difference: difference between treated and controls (ethanol); for Average extinction values, Treated: skin fat removed after 90 minutes, refatting measured after three additional hours, treated group
Procedure: The sebaceous gland excretion-inhibiting activity was ascertained by the glass block method described by Schaefer and Kuhn-Bussius in Arch. Klin. exper. Derm. 238, 429-435 (1970). Small glass blocks, the facets of which have been roughened or frosted, are pressed against the skin surface where the amount of skin fat is measured. The skin fat or sebum transferred from the skin to the glass facet makes the blocks more translucent, and the increase in translucence is directly proportional to the amount of sebum present in the skin area. The translucence is measured in a photometer. Prior to measurement of the degree of refating of the skin, the skin fat was removed with a plastic foil.
0.25 ml of an ethanolic 5% solution of the compound to be tested was applied to half of the forehead of 5 to 10 human test subjects, while 0.25 ml of ethanol was applied to half of the forehead of a group of 5 to 10 control subjects. After 90 minutes the skin fat was removed with the plastic foil, and after three additional hours the degree of refatting was determining with the aid of the small glass blocks referred to above.

[2] = tested on: dinitrochlorobenzene-eczema; experiment: antiphlogistic activity, dinitrochlorobenzene-eczema method; format: in vivo, guinea pigs; conditions: Cavia porcellus, topical; ethanolic 5% solution on shaved flanks, 30 minutes before 1% dinitrochlorobenzene; visual evaluation after 22 hours; read-out: Inhibition of dinitrochlorobenzene-eczema over control
Procedure: The antiphlogistic activity was ascertained by the dinitrochlorobenzene-eczema method [see A. I. Scott, Brit. J. Dermatol. 77, 586 (1965)].
The compound to be tested was applied in the form of an ethanolic 5% solution to the shaved flanks of a group of 10 guinea pigs which has been sensitized with dinitrochlorobenzene. An analogous control group was treated with only ethanol. The treatment was effected 30 minutes prior to release of the allergic reaction with a 1% solution of dinitrochlorobenzene in acetone. The results were visually evaluated 22 hours thereafter.

[3] = acute toxicity, LD50 mouse i.p.; conditions: in vivo, ip

SMILES | Average extinction values, Difference [1] | Average extinction values, Treated [1] | inhibition in vivo at 5 % [2] [%] | LD50 [3] [mg/kg]
CCCCCCCCCCCCCCCCOC(=O)CNC(C)=O [A, n-acetyl-glycine hexadecyl ester] | 9.5 | 75.5 | 46 | –
CCCCCCCCCCCCCCCCOC(=O)C(C)NC(C)=O (stereo not drawn) [B, n-acetyl-alanine hexadecyl ester] | 7.5 | 74.0 | 19 | –
CCCCCCCCCCCCCC(=O)NCC(=O)O [H, n-tetradecanoyl-glycine] | – | – | 38 | –
CCCCCCCCCCCCCCCCOC(=O)CNC=O [F, n-formyl-glycine hexadecyl ester] | – | – | 50 | –
CCCCCCCCCCCCCCCCOC(=O)CNC(=O)CC [G, n-propionyl-glycine hexadecyl ester] | – | – | 34 | –
CCCCCCCCCCCCCCCCOC(=O)CCNC(C)=O [J, n-acetyl-β-alanine hexadecyl ester] | – | – | 35 | –
O=C(O)CCCNC(=O)c1ccc(-c2ccccc2)cc1 [I, n-(4'-phenyl-benzoyl)-4-amino-butyric acid] | – | – | 36 | –
CCCCCCCCCCCCCCCCOC(=O)CNC(=O)c1ccccc1 [Compound C, n-benzoyl-glycine hexadecyl ester] | 16.5 | 78.5 | 28 | > 4000
CCCCCCCCCCCCCCCCOC(=O)CN(C)C(C)=O [D, n-acetyl-sarcosine hexadecyl ester] | 9.0 | 86.5 | 20 | –
